In patent US20140363378A1, “SELF-ASSEMBLING MOLECULES THAT ACCUMULATE IN ACIDIC TUMOR MICROENVIRONMENTS” (The Ohio State University, priority 2012, published 2014):
Peptide text beside a SMILES is read from it. * marks the point of attachment. Palmitoyl = CCCCCCCCCCCCCCCC(=O)*; DO3A:Gd = Gd-chelated DO3A

How the values were obtained:
Assay type in all cases: physicochemical
[1] = Transmission electron microscopy (TEM) of self-assembled morphology; conditions: 0.5 mM PA
Experimental: At a pH of 7.75, HCl was added until the pH was 6.1, and the resulting β-sheet CD spectrum was collected within three minutes. An appropriate amount of NaOH was then added to reverse the pH back to 7.70, and random coil behavior was observed again. […] Conventional transmission electron microscopy (TEM) imaging was used to determine the morphology of 10 μM of PA 1, at pH values of 6 and 8 (FIG. 6A, 6B). The TEM grids were prepared within three minutes of pH adjustment. […] This nanofiber diameter corresponds roughly to twice the molecular length based on MM+ molecular simulations, corresponding approximately to the expected diameter of cylindrical fibers consisting of hydrophobically collapsed β-sheets.
TEM images were obtained using solutions of either 10 μM or 0.5 mM peptide amphiphile concentration, as well as 150 mM NaCl and 2.2 mM CaCl2 in Milli-Q water. The solutions were first heated at 80° C. for 30 minutes in a water bath and then gradually cooled to room temperature. This was followed by pH adjustment using either HCl or NaOH. 5 μL of this solution was pipetted onto a Carbon Formvar grid (Electron Microscopy Sciences) and allowed to sit for 2 minutes before being wicked dry using filter paper. For the 10 μM experiments that were performed to determine the time dependence of nanofiber formation, solutions were dropcast onto the grid within three minutes of pH adjustment. […]

[2] = pH titration of peptide amphiphiles; conditions: aqueous solution of 150 mM NaCl and 2.2 mM CaCl2, glutamic acid residues, 10 μM PA
Experimental: The titration measurements were conducted on 10 μM peptide amphiphile solutions prepared in 150 mM NaCl and 2.2 mM CaCl2 using milli-Q water. The solution was heated at 80° C. for 30 minutes followed by slow cooling at room temperature. The pH of the solution was then adjusted to 4 using HCl. Finally, an Accumet XL15 pH meter (Fisher Scientific) coupled with an Orion Ross Ultra semi-micro electrode (8103BNUWP, Thermo Scientific) was used to track changes in pH of the solution as NaOH solution was added in small increments. pKa values were obtained from the second inflection points of the first derivative plots of the titration data. The first transition corresponds to neutralization of excess HCl. The calculated pKas reflect the average pKa for all four glutamic acids.

[3] = Circular dichroism (CD) spectroscopy of pH-triggered self-assembly transition; conditions: for each concentration (10 μM, 500 μM)
Experimental: The target PA concentration (10 μM) was below the detectable limit of conventional techniques to determine the morphology such as cryoTEM and small-angle X-ray scattering. Consequently, circular dichroism (CD) spectroscopy was initially used to characterize the morphology of these PAs at various pH values. PA 1 was the first molecule synthesized that underwent a self-assembly transition in the desired pH range of 6.6-7.4 at 10 μM PA concentration, in 150 mM NaCl and 2.2 mM CaCl2 (FIG. 2A) (Goldberger, J. E., et al. Angew. Chem. Int. Ed. 2011 50:6292-95). […] The transition pH from random coil to β-sheet occurred at a pH of 6.6. The transition pH was defined as the value at which the ellipticity at 205 nm rises to zero, followed by the appearance of a minimum at 218-220 nm.
Measurements were done on a Jasco-815 Circular Dichroism spectrometer using 1 cm path length quartz cuvettes. […] Double deionized Milli-Q water was used for preparing all solutions. The solutions were then heated at 80° C. for 30 minutes in a water bath and gradually cooled to room temperature. […]

| pKa [2] | Compound | also measured |
| --- | --- | --- |
| – | Palmitoyl-IAAAEEEEK(DO3A:Gd)-NH2 (also: Gd complex of DO3A) [PA 5] | diameter of nanofibers ([1]; pH 4): 11.9±1.6 nm; diameter of spherical micelles ([1]; pH 10): 10.0±1.2 nm |
| 4.86 ± 0.11 | CCCCCCCCCCCCCCCC(=O)N[C@H](C(=O)N[C@@H](C)C(=O)N[C@@H](C)C(=O)N[C@@H](C)C(=O)N[C@@H](CCC(=O)O)C(=O)N[C@@H](CCC(=O)O)C(=O)N[C@@H](CCC(=O)O)C(=O)N[C@@H](CCC(=O)O)C(N)=O)C(C)C [PA 3] (Palmitoyl-VAAAEEEE-NH2) | – |
| – | Palmitoyl-VAAAEEEEK(DO3A:Gd)-NH2 (also: Gd complex of DO3A) [PA 6] | nanofiber to micelle transition pH, lower than PA 5 by [3]: 0.4 units |
| 4.7 ± 0.1 | CCCCCCCCCCCCCCCC(=O)N[C@@H](Cc1ccc(O)cc1)C(=O)N[C@@H](C)C(=O)N[C@@H](C)C(=O)N[C@@H](C)C(=O)N[C@@H](CCC(=O)O)C(=O)N[C@@H](CCC(=O)O)C(=O)N[C@@H](CCC(=O)O)C(=O)N[C@@H](CCC(=O)O)C(N)=O [PA 4] (Palmitoyl-YAAAEEEE-NH2) | – |
| 4.66 ± 0.1 | CCCCCCCCCCCCCCCC(=O)N[C@H](C(=O)N[C@@H](C)C(=O)N[C@@H](C)C(=O)N[C@@H](C)C(=O)N[C@@H](CCC(=O)O)C(=O)N[C@@H](CCC(=O)O)C(=O)N[C@@H](CCC(=O)O)C(=O)N[C@@H](CCC(=O)O)C(N)=O)[C@@H](C)CC [PA 1] (Palmitoyl-IAAAEEEE-NH2) | – |
| 4.94 ± 0.09 | CCCCCCCCCCCCCCCC(=O)N[C@@H](Cc1ccccc1)C(=O)N[C@@H](C)C(=O)N[C@@H](C)C(=O)N[C@@H](C)C(=O)N[C@@H](CCC(=O)O)C(=O)N[C@@H](CCC(=O)O)C(=O)N[C@@H](CCC(=O)O)C(=O)N[C@@H](CCC(=O)O)C(N)=O [PA 2] (Palmitoyl-FAAAEEEE-NH2) | – |
